US4550118A, “Heterocyclic compounds” (Ikeda Mohando Co., Ltd., priority 1982, dated 1985)

Assays:
[1] = test system: acid secretion in pylorus-ligated rats; assay: Anti-secretory effect (histamine-stimulated gastric acid secretion) in pylorus-ligated rat; assay type: in vivo, male wistar rats; conditions: Rattus norvegicus, sc, 3 h; 2 mg/kg s.c., 30 min before histamine 3 mg/kg s.c.; n=5; * significant at 5%, ** at 1% vs control; read-out: inhibitory effect of acid secretion (%) at 2 mg/kg s.c.
Protocol: (A) Anti-secretory Effect in Pylorus-ligated Rat
After 24 hr fasting, male wistar rats weighing about 160 g were anesthetized by intraperitoreal injection of urethans 1.2 g/kg. Then, after ligating the pylorus and the esophagus, the proventriculus was incised and a double polyethylene cannula was inserted. The gastric wall was washed out with 5 ml of physiological saline every 30 minutes and the amount of acid contained in the saline after washing was measured by titration. After measuring the basal acid secretion of the pylorus ligated rats three times, the compounds of the invention, 2 mg/kg, were administered subcutaneously and, 30 minutes thereafter, histamine 3 mg/kg, was administered also subcutaneously. Then, the amounts of acid secretion were measured for 3 hours. […] Then, an inhibition rate was calculated in accordance with the following formula, in relation to the increment values measured for the control group. [formula]
One group included five examples.

[2] = molecular target: T1, histamine H2 receptor in atria (Cavia porcellus, UniProt P47747); assay: Histamine H2 receptor inhibition effect by isolated guinea pig right atrium preparation (negative chronotropic effect); assay type: cell-based, Male Hartley Guinea Pig; conditions: 5×10^-6 mol sample 3 minutes prior to histamine, mean of five, read-out: inhibitory effect of histamine H2 receptor in atria (pA2 value) (converted)
T1 construct: right atrium was isolated; from tissue; host or cells: isolated right atrium of male Hartley guinea pig
T1 sequence (P47747 whole entry): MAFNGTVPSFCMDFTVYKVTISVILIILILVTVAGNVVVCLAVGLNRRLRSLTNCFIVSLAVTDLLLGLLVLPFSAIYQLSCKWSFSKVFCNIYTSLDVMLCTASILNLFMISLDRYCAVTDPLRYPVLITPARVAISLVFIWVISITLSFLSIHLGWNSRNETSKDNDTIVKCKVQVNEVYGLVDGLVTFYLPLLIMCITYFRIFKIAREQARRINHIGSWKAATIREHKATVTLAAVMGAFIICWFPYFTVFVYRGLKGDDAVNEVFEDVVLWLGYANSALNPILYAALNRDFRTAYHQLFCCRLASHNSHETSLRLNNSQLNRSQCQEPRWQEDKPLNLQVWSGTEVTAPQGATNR
Protocol: (B) Measurement of Histamine H2 Receptor Inhibition Effect by Isolated Guinea Pig Right Atrium Preparation
Male Hartley Guinea Pig weighing around 400 g was sacrified by decapitation, and right atrium was isolated. The right atrium was suspended in an organ bath (50 ml) containing modified Ringer solution. Under application of a tensile load of 1 g, the heart rate was recorded by means of a polygraph. Histamine was applied cumulatively from 1×10^-7 mol to 3×10^-4 mol and a cumulative dosage response curve was drawn. Then, 5×10^-6 mol of the sample was administered 3 minutes prios to histamine application. The negative logarithmic value (pA2) of the specimen molarity required for shifting the curve to the right to double concentration was calculated.

gastric mucus secretion = assay: Effect on gastric mucus secretion in rats (alcian blue binding); assay type: in vivo, Wistar male rats; conditions: 10 mg/kg × 2/day orally for 7 days, * significant at 5%, ** at 1%; for Alcian blue binding: 7 rats; for % Change (Alcian blue binding): vs control (0.5% CMC)
Protocol: The test compounds were administered orally to Wistar male rats weighing from 160 to 180 g so as to investigate the effect on gastric mucus secretion. The amount of mucus was determined using alcian blue color specifically bonding with acid mucosaccharides, and was expressed by the amount of color bonding with a unit weight (OD units/g tissue). The test compounds were administered at a dosage of 10 mg/kg twice a day for 7 days, and the rats were sacrificed one hour after the final administration in the morning on the 8th day by cervical dislocation. After laparatomy, the stomach was removed. After removal of the forestomach, an incision was made along the greater curvatura. The stomach was lightly washed with a 0.25M sucrose solution cooled with ice. The weight was determined after absorption of water with a filter paper.
Then, the stomach was exposed for 1.5 hrs in 10 ml of 0.25M sucrose solution containing 0.1% alcian blue 8 GX for staining. Then, the stained stomach was washed with 10 ml of a 0.25M sucrose for 15 min, being dipped in 15 ml of a 0.5M MgCl2 for 2 hrs so as to elute alcian blue combined with the mucus. Finally, 10 ml of ethyl ether was added, and the mixture was shaken vigorously. The floating substances were removed, and the aqueous layer was quantified by measuring the absorption at 605 nm.
The above procedures were carried out at room temperature.

[3] = Acute oral toxicity test in mice (LD50, Litchfield-Wilcoxon); conditions: mouse, in vivo
Protocol: Male dd-mice were divided into groups of 5 and fasted for 8 hours. The test compounds were administered orally to the mice weighing from 19.7 g. to 22.0 g. The mice were observed survival or death as well as the general symptoms over 7 days after the administration of the compounds. The value of LD50 for each compound was estimated from the mortality observed on the basis of the Litchfield-Wilcoxon method.
In a similar test, the test compound of example 27, 35, 66, 84, 97, 104, 118, 125 or 129 was administered orally to the mice at a dose of 1500 mg/kg.

Compound	inhibition in vivo at 2 mg/kg [1] [%]	Kb [2] [µM]	Alcian blue binding (gastric mucus secretion) [OD units/g tissue]	% Change (Alcian blue binding) (gastric mucus secretion)	LD50 at 168 h ([3]; similar test, oral dose of 1500 mg/kg) [mg/kg]	LD50 at 168 h ([3]; oral, groups of 5, 7 days observation) [mg/kg]
CN(C)Cc1nc2cc(CSCCNc3nc(N)nn3C)ccc2[nH]1 [Example 97, 1-methyl-5-[2-<5-(2-dimethylaminomethylbenzimidazolyl)-methylthio>ethyl]-1H-1,2,4-triazole-3,5-diamine]	76	0.891	0.49 ± 0.02	+37.4%	> 1500	
CN(C)Cc1nc2cc(CSCCNc3n[s+]([O-])nc3N)ccc2[nH]1 (stereo not shown) [Example 103, 3-[2-<5-(2-dimethylaminomethylbenzimidazolyl)methylthio>ethyl]amino-4-amino-1,2,5-thiadiazol-1-oxide]	98	0.575	0.31 ± 0.02	+14.8%		> 4000
